Reference: patent US20250090498A1, “TREATMENT OF PRIMARY CTLA-4 CHECKPOINT RELATED IMMUNODEFICIENCIES” (ADIENNE PHARMA & BIOTECH SA, priority 2023, published 2025)
Entries after “also recorded” stand apart in the source; their conditions may differ.

Key:
[1] = cited from earlier work
[2] = tested on: colitis, gastrointestinal and vaginal candidiasis; conditions: mouse, in vivo; cited from earlier work
[3] = tested on: pathology after chronic treatment with anti-CTLA-4 monoclonal antibody; assay: chronic anti-CTLA-4 treatment in 16 wk-old Il10−/− mice, without DSS; format: in vivo
Source text: Animals were monitored daily for body weight, disease activity index, clinical inspection, inflammatory pathology in the ileum and colon, epithelial barrier function and immunological parameters of inflammation. […] Consistent with the extensive T cells infiltration in different organs observed in CTLA-4 haploinsufficiency (Kuehn et al, 2014; Schubert et al, 2014; […] No lymphocytic infiltration or immunopathology were detected in organs, such as the spleens and kidneys (data not shown).

[4] = tested on: disease progression in IL-10-deficient mice; assay: disease progression in 16 wk-old IL-10-deficient mice, 3-IAld for 4 weeks then 1% DSS; format: in vivo, Il10−/− mice; conditions: 3-IAld every other day for 4 weeks
Procedure: Sixteen week-old IL-10-deficient mice (Il10^−/−) were treated with 3-IAld every other day for 4 weeks, as illustrated in FIG. 10A. As a mimic of disease exacerbation, mice received 1% DSS after 3-IAld treatment and subsequently evaluated for weight change, intestinal pathology and epithelial integrity.

[5] = tested on: pathology after acute treatment with anti-CTLA-4 monoclonal antibody; assay: acute anti-CTLA-4 treatment in 8-10 week-old Il10−/− mice, without DSS; format: in vivo
Procedure: Il10^−/− mice were treated with anti-CTLA-4 monoclonal antibody and 3-IAld alone, as above (FIG. 6), without DSS. Animals were monitored daily for body weight and inflammatory pathology in the colon and sacrificed at 14 days after the first anti-CTLA-4 monoclonal antibody administration.

[6] = tested on: DSS+anti-CTLA-4-induced colitis; assay: DSS+anti-CTLA-4-induced colitis in 8-10 wk-old Il10−/− mice; format: in vivo
Procedure: Il10^−/− Mice received DSS (1%) in their drinking water and 100 μg anti-CTLA-4 monoclonal antibody intraperitoneally at days 0, 4 and 8 following the DSS administration. 3-IAld-Eudragit was given (18 mg/kg 3-IAld) intragastrically every other day throughout the experiment, starting 2 days before treatment. Animals were monitored daily for body weight and inflammatory pathology in the colon until 14 days after DSS administration.

AhR = target: T1, AhR (Homo sapiens, UniProt P35869); assay: AhR-dependent genes in vitro in cell lines (data not shown); format: cell-based; set-up: host or cells: unnamed cell lines; conditions: preliminary
T1 sequence (P35869 11-848): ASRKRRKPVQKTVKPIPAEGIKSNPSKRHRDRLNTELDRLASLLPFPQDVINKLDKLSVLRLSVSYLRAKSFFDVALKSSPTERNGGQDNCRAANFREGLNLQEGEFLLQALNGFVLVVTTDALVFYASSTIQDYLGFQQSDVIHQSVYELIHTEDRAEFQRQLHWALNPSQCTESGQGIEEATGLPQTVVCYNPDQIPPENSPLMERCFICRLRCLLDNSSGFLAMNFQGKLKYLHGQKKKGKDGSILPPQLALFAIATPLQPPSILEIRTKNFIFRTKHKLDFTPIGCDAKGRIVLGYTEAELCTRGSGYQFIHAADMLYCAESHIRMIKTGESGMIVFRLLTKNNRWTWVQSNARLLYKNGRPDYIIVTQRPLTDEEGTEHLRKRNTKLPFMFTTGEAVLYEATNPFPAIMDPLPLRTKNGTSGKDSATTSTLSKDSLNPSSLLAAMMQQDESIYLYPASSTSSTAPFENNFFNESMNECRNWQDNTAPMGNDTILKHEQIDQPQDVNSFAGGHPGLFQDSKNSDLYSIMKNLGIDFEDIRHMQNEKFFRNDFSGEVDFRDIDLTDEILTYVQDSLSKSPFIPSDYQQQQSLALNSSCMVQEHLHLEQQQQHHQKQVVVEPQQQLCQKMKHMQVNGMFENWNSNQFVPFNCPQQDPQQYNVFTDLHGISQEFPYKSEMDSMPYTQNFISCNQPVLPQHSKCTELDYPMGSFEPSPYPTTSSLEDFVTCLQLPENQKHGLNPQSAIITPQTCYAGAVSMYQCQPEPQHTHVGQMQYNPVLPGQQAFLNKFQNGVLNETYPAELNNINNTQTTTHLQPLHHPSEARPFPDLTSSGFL
Procedure: Specifically, the oxidated form of 3-IAld (indole-3-formic acid), and methylated forms of indole-3-formic acid, were detected following administration of labelled 3-IAld. For example, 1-Methylindole-3-carboxylic acid was detected with the same kinetics of indole-3-formic acid, with peak levels at 30 min (FIGS. 13C and 13D). Few studies have been performed assessing the biological activities of methylindoles and methoxyindoles as aryl hydrocarbon receptor (AhR) activators.

[7] = 3-IAld-Eudragit 18 mg/kg, DSS 1%

Row | SMILES | acidity (based on its pKa) [1] | solubility in water [1] | barrier integrity and production of antimicrobial peptides [2] | cytotoxic effects / pathology induced by CTLA-4 blockade (overall) ([3]; 3-IAld, chronic schedule) | CD3+ T cell (lymphocytic) infiltration ([3]; ileum, colon, lung and liver, anti-CD3 staining) | colon inflammatory histopathology [4] | disease progression (overall) [4] | loss of body weight [4] | epithelial integrity and renewal ([4]; PAS and Ki-67) | pathology after acute anti-CTLA-4 treatment (overall) ([5]; 3-IAld) | body weight loss ([5]; 3-IAld as in the DSS model, 14 days) | inflammatory pathology (colon) ([5]; 3-IAld, 14 days) | massive cellular infiltrate (submucosa) ([5]; 3-IAld, 14 days) | DSS+anti-CTLA-4-induced colitis (overall) ([6]; 3-IAld) | loss of body weight ([6]; 3-IAld-Eudragit 18 mg/kg intragastrically every other day, DSS 1%) | disease activity index [6, 7] | inflammatory pathology (colon) [6, 7] | activation of AhR-dependent genes (AhR)
1 | O=Cc1c[nH]c2ccccc12 [3-IAld, 1H-indole-3-carbaldehyde] | very weakly acidic | slightly soluble | enhanced | effective; also recorded: protects | significantly reduced; also recorded: reduces lymphocytic infiltration | slow down | slows disease progression | slow down | maintain | protects | prevented | ameliorated | reducing | protects | prevented | decreased | decreased | 
2 | Cn1cc(C(=O)O)c2ccccc21 [1-methylindole-3-carboxylic acid, 1-Methyl-1H-indole-3-carboxylic acid] |  |  |  |  |  |  |  |  |  |  |  |  |  |  |  |  |  | activated AhR-dependent genes in a dose-dependent manner
